Target: T1, F508del (Homo sapiens, UniProt P13569, DEL508-508)
T1 construct: expressed in transfected cells
Test: Protocol 1: membrane potential optical assay (FLIPR III, voltage sensing dye), identification of potentiator compounds
Assay type: cell-based
Conditions: Table 3, compounds of Table 1
Method in brief: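 Gating potentiation is read as a membrane-potential fluorescence change (FLIPR III, voltage-sensing dye) after one forskolin addition under a Cl− gradient, with gluconate replacing chloride, pH 7.4. Cells are F508del-expressing NIH3T3 mouse fibroblasts held 24 h at 27 °C and exposed to compound before dye loading.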

T1 sequence (P13569 with tags, fused parts or gaps DEL508-508): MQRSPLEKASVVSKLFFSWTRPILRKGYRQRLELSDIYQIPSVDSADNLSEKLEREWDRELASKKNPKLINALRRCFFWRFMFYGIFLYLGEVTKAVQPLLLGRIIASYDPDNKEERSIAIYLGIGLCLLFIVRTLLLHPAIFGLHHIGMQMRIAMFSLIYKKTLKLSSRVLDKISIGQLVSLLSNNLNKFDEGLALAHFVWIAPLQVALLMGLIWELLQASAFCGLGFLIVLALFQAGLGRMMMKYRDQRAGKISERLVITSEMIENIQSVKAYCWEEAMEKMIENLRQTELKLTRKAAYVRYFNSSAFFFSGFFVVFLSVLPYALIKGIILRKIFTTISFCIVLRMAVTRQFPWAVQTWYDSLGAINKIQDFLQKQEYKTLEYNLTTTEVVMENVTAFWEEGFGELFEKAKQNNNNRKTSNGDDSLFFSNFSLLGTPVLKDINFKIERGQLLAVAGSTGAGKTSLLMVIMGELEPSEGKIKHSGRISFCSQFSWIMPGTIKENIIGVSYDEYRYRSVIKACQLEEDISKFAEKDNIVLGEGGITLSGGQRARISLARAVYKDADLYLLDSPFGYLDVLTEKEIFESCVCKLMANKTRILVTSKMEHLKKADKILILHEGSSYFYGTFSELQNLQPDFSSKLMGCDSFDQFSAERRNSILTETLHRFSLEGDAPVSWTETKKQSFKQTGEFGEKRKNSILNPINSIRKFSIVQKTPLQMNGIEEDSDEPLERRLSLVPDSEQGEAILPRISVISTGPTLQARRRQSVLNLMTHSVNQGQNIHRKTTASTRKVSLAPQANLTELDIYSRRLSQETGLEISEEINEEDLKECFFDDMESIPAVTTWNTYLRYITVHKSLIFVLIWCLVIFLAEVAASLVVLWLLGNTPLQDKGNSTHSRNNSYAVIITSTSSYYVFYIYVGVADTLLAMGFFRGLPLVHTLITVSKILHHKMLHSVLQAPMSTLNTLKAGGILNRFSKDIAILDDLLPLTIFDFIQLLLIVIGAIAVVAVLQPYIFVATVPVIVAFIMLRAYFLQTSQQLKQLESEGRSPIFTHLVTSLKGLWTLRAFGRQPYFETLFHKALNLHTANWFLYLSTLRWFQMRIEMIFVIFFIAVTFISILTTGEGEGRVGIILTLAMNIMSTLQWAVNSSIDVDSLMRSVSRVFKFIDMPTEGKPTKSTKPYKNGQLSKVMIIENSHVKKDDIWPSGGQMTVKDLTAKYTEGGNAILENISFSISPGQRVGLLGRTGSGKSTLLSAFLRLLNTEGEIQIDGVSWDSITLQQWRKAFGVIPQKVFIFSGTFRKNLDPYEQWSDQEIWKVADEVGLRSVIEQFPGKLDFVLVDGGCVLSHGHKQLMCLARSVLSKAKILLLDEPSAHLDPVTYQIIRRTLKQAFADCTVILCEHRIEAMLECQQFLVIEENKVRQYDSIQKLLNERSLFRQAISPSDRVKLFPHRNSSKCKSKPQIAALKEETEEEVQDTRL

Row | Compound | EC30
1 | CC(C)COc1cc(F)cc(-c2nc(N3C[C@@H](C)CC3(C)C)c(C(=O)NS(=O)(=O)c3cccc(N)n3)cc2Cl)c1 [Compound 1641, N-[(6-amino-2-pyridyl)sulfonyl]-5-chloro-6-(3-fluoro-5-isobutoxy-phenyl)-2-[(4S)-2,2,4-trimethylpyrrolidin-1-yl]pyridine-3-carboxamide] | +++ (“+++” means <3 uM)
2 | CCOc1cccc2c1CN(Cc1c(C)cc(C)cc1C)C2(C)C(=O)NS(=O)(=O)c1ncccc1O (stereo not drawn) [Compound 1642, 4-ethoxy-N-[(3-hydroxy-2-pyridyl)sulfonyl]-1-methyl-2-[(2,4,6-trimethylphenyl)methyl]isoindoline-1-carboxamide] | +++ (“+++” means <3 uM)
3 | Cc1cc(C)c(Oc2nc(C3=CCNCC3)ccc2C(=O)NS(=O)(=O)c2cccc(N)n2)c(C)c1 [Compound 1643, N-[(6-amino-2-pyridyl)sulfonyl]-6-(1,2,3,6-tetrahydropyridin-4-yl)-2-(2,4,6-trimethylphenoxy)pyridine-3-carboxamide] | ++ (“++” means between 3 uM and 10 uM)
4 | CC(C)COc1cc(F)cc(-c2ccc(C(=O)NS(=O)(=O)c3cccc(N)n3)c(OC3(C)CCC3)n2)c1 [Compound 1644, N-[(6-amino-2-pyridyl)sulfonyl]-6-(3-fluoro-5-isobutoxy-phenyl)-2-(1-methylcyclobutoxy)pyridine-3-carboxamide] | +++ (“+++” means <3 uM)
5 | Cc1ccc(OCC(C)(C)C)nc1-c1ccc(C(=O)NS(=O)(=O)c2cccc(N)n2)c(N2CC(C)CC2(C)C)n1 (stereo not drawn) [Compound 1645, N-[(6-amino-2-pyridyl)sulfonyl]-6-[6-(2,2-dimethylpropoxy)-3-methyl-2-pyridyl]-2-(2,2,4-trimethylpyrrolidin-1-yl)pyridine-3-carboxamide] | +++ (“+++” means <3 uM)
6 | Cc1cc(OCC(C)C)cc(-c2ccc(C(=O)NS(=O)(=O)c3cccc(N)n3)c(N3C[C@@H](C)CC3(C)C)n2)c1 [Compound 1646, N-[(6-amino-2-pyridyl)sulfonyl]-6-(3-isobutoxy-5-methyl-phenyl)-2-[(4 S)-2,2,4-trimethylpyrrolidin-1-yl]pyridine-3-carboxamide] | +++ (“+++” means <3 uM)
7 | CC1CN(c2nc(C(C)(C)C)c(C3=CC(C)(C)OC(C)(C)C3)cc2C(=O)NS(=O)(=O)c2cccc(N)n2)C(C)(C)C1 (stereo not drawn) [Compound 1647, N-[(6-amino-2-pyridyl)sulfonyl]-6-tert-butyl-5-(2,2,6,6-tetramethyl-3H-pyran-4-yl)-2-(2,2,4-trimethylpyrrolidin-1-yl)pyridine-3-carboxamide] | +++ (“+++” means <3 uM)
8 | CC(C)COc1cc(F)cc(-c2ccc(C(=O)NS(=O)(=O)N3CCC(O)C3)c(N3C[C@@H](C)CC3(C)C)n2)c1 (stereo partly drawn) [Compound 1648, 6-(3-fluoro-5-isobutoxy-phenyl)-N-(3-hydroxypyrrolidin-1-yl)sulfonyl-2-[(4S)-2,2,4-trimethylpyrrolidin-1-yl]pyridine-3-carboxamide] | +++ (“+++” means <3 uM)
9 | CC(=O)N1CC=C(c2ccc(C(=O)NS(=O)(=O)c3cccc(N)n3)c(Oc3c(C)cc(C)cc3C)n2)CC1 [Compound 1649, 6-(1-acetyl-3,6-dihydro-2H-pyridin-4-yl)-N-[(6-amino-2-pyridyl)sulfonyl]-2-(2,4,6-trimethylphenoxy)pyridine-3-carboxamide] | ++ (“++” means between 3 uM and 10 uM)
10 | Cc1cc(C)c(Oc2nc(C3CC4CCC3(C)C4(C)C)ccc2C(=O)NS(=O)(=O)c2cccc(N)n2)c(C)c1 (stereo not drawn) [Compound 1650, N-[(6-amino-2-pyridyl)sulfonyl]-6-(1,7,7-trimethylnorbornan-2-yl)-2-(2,4,6-trimethylphenoxy)pyridine-3-carboxamide] | +++ (“+++” means <3 uM)
11 | CC(C)Oc1ccc(-c2cnc(C(=O)NS(=O)(=O)c3cccc(N)n3)c(N3[C@H](C)CC[C@@H]3C)n2)cn1 [Compound 1651, N-[(6-amino-2-pyridyl)sulfonyl]-3-[(2S,5R)-2,5-dimethylpyrrolidin-1-yl]-5-(6-isopropoxy-3-pyridyl)pyrazine-2-carboxamide] | ++ (“++” means between 3 uM and 10 uM)
12 | CC(=O)Nc1cccc(S(=O)(=O)NC(=O)c2ccc(-c3cc(F)cc(OCC(C)C)c3)nc2N2C[C@@H](C)CC2(C)C)n1 [Compound 1652, N-[(6-acetamido-2-pyridyl)sulfonyl]-6-(3-fluoro-5-isobutoxy-phenyl)-2-[(4S)-2,2,4-trimethylpyrrolidin-1-yl]pyridine-3-carboxamide] | +++ (“+++” means <3 uM)
13 | Cc1cc(C)c(Cn2nc(C(C)(C)C)cc2C(=O)NS(=O)(=O)c2ccc(N)cc2)c(C)c1 [Compound 1653, N-(4-aminophenyl)sulfonyl-5-tert-butyl-2-[(2,4,6-trimethylphenyl)methyl]pyrazole-3-carboxamide] | +++ (“+++” means <3 uM)
14 | CC(C)COc1cc(F)cc(-c2ccc(C(=O)NS(=O)(=O)c3cccc(N)n3)c(OCCc3cccnc3)n2)c1 [Compound 1654, N-[(6-amino-2-pyridyl)sulfonyl]-6-(3-fluoro-5-isobutoxy-phenyl)-2-[2-(3-pyridyl)ethoxy]pyridine-3-carboxamide] | +++ (“+++” means <3 uM)
15 | CCOc1cccc2c1CN(Cc1ccc(C(C)C)cc1)C2(C)C(=O)NS(=O)(=O)c1cccc(F)n1 (stereo not drawn) [Compound 1655, 4-ethoxy-N-[(6-fluoro-2-pyridyl)sulfonyl]-2-[(4-isopropylphenyl)methyl]-1-methyl-isoindoline-1-carboxamide] | +++ (“+++” means <3 uM)
16 | Cc1cc(OCC(C)C)nc(-c2ccc(C(=O)NS(=O)(=O)c3cccc(N)n3)c(N3C[C@@H](C)CC3(C)C)n2)c1 [Compound 1656, N-[(6-amino-2-pyridyl)sulfonyl]-6-(6-isobutoxy-4-methyl-2-pyridyl)-2-[(4S)-2,2,4-trimethylpyrrolidin-1-yl]pyridine-3-carboxamide] | +++ (“+++” means <3 uM)
17 | CC(C)COc1cc(F)cc(-c2ccc(C(=O)NS(=O)(=O)c3cccc(N)n3)c(N3CC4CCC3CC4)n2)c1 [Compound 1657, N-[(6-amino-2-pyridyl)sulfonyl]-2-(3-azabicyclo[2.2.2]octan-3-yl)-6-(3-fluoro-5-isobutoxy-phenyl)pyridine-3-carboxamide] | +++ (“+++” means <3 uM)
18 | CC1(C)CN(c2nccc(C(F)(F)F)c2C(=O)NS(=O)(=O)c2cccc(N)n2)C(C)(C)C1 [Compound 1658, N-[(6-amino-2-pyridyl)sulfonyl]-2-(2,2,4,4-tetramethylpyrrolidin-1-yl)-4-(trifluoromethyl)pyridine-3-carboxamide] | ++ (“++” means between 3 uM and 10 uM)
19 | Cc1ccc(OCC(C)C)nc1-c1ccc(C(=O)NS(=O)(=O)c2cccc(N)n2)c(N2CC(C)CC2(C)C)n1 (stereo not drawn) [Compound 1659, N-[(6-amino-2-pyridyl)sulfonyl]-6-(6-isobutoxy-3-methyl-2-pyridyl)-2-(2,2,4-trimethylpyrrolidin-1-yl)pyridine-3-carboxamide] | +++ (“+++” means <3 uM)
20 | CC(C)Oc1ccc(-c2ccc(C(=O)NS(=O)(=O)c3cccnc3N)c(N3C[C@@H](C)CC3(C)C)n2)cn1 [Compound 1660, N-[(2-amino-3-pyridyl)sulfonyl]-6-(6-isopropoxy-3-pyridyl)-2-[(4S)-2,2,4-trimethylpyrrolidin-1-yl]pyridine-3-carboxamide] | +++ (“+++” means <3 uM)
21 | CC(C)COc1cc(F)cc(-c2ccc(C(=O)NS(=O)(=O)c3cccc(N)n3)c(OCC3CCCO3)n2)c1 (stereo not drawn) [Compound 1661, N-[(6-amino-2-pyridyl)sulfonyl]-6-(3-fluoro-5-isobutoxy-phenyl)-2-(tetrahydrofuran-2-ylmethoxy)pyridine-3-carboxamide] | +++ (“+++” means <3 uM)
22 | CCOc1cccc2c1CN(Cc1ccc(OC(C)C)nc1)C2(C)C(=O)NS(=O)(=O)c1cccc(N)n1 (stereo not drawn) [Compound 1662, N-[(6-amino-2-pyridyl)sulfonyl]-4-ethoxy-2-[(6-isopropoxy-3-pyridyl)methyl]-1-methyl-isoindoline-1-carboxamide] | ++ (“++” means between 3 uM and 10 uM)
23 | C[C@@H]1CN(c2nc(-c3cccc(OCC(C)(C)C)n3)ccc2C(=O)NS(=O)(=O)c2cccc(N)n2)C(C)(C)C1 [Compound 1663, N-[(6-amino-2-pyridyl)sulfonyl]-6-[6-(2,2-dimethylpropoxy)-2-pyridyl]-2-[(4S)-2,2,4-trimethylpyrrolidin-1-yl]pyridine-3-carboxamide] | +++ (“+++” means <3 uM)
24 | C[C@@H]1CN(c2nc(C3=CCC(C(F)(F)F)CC3)ccc2C(=O)NS(=O)(=O)c2cccc(N)n2)C(C)(C)C1 (stereo partly drawn) [Compound 1664, N-[(6-amino-2-pyridyl)sulfonyl]-6-[4-(trifluoromethyl)cyclohexen-1-yl]-2-[(4S)-2,2,4-trimethylpyrrolidin-1-yl]pyridine-3-carboxamide] | +++ (“+++” means <3 uM)
25 | C[C@@H]1CN(c2nc(C(C)(C)C)c(/C=C/C3CC3)cc2C(=O)NS(=O)(=O)c2cccc(N)n2)C(C)(C)C1 [Compound 1665, N-[(6-amino-2-pyridyl)sulfonyl]-6-tert-butyl-5-[(E)-2-cyclopropylvinyl]-2-[(4S)-2,2,4-trimethylpyrrolidin-1-yl]pyridine-3-carboxamide] | +++ (“+++” means <3 uM)
26 | CCOc1cccc2c1CN(Cc1c(C)cc(C)cc1C)C2(C)C(=O)NS(=O)(=O)c1cccc2[nH]ccc12 (stereo not drawn) [Compound 1666, 4-ethoxy-N-(1H-indol-4-ylsulfonyl)-1-methyl-2-[(2,4,6-trimethylphenyl)methyl]isoindoline-1-carboxamide] | +++ (“+++” means <3 uM)
27 | CC(C)COc1cc(F)cc(-c2ccc(C(=O)NS(=O)(=O)c3cccc(N)n3)c(C3=CCC(C(F)(F)F)CC3)n2)c1 (stereo not drawn) [Compound 1667, N-[(6-amino-2-pyridyl)sulfonyl]-6-(3-fluoro-5-isobutoxy-phenyl)-2-[4-(trifluoromethyl)cyclohexen-1-yl]pyridine-3-carboxamide] | ++ (“++” means between 3 uM and 10 uM)
